Test results reported in the kinase profiling compilation of Christmann-Franck et al. (2016).

Assays:
Assay in all cases: Caliper, Mobility shift assay off-chip
AKT2 (human) = AKT2 (human) (UniProt P31751)
CAMK2D (human) = CAMK2D (human) (UniProt Q13557)
CAMK2G (human) = CAMK2G (human) (UniProt Q13555)
CDK9 (human) = CDK9 (human) (UniProt P50750)
CSNK1G3 (human) = CSNK1G3 (human) (UniProt Q9Y6M4)
DDR1 (human) = DDR1 (human) (UniProt Q08345)
EPHA5 (human) = EPHA5 (human) (UniProt P54756)
ERBB2 (human) = ERBB2 (human) (UniProt P04626)
ERBB4 (human) = ERBB4 (human) (UniProt Q15303)
HIPK2 (human) = HIPK2 (human) (UniProt Q9H2X6)
MAPK1 (human) = MAPK1 (human) (UniProt P28482)
MAPK13 (human) = MAPK13 (human) (UniProt O15264)
MAPK3 (human) = MAPK3 (human) (UniProt P27361)
MARK3 (human) = MARK3 (human) (UniProt P27448)
NEK2 (human) = NEK2 (human) (UniProt P51955)
NEK6 (human) = NEK6 (human) (UniProt Q9HC98)
PDK2 (human) = PDK2 (human) (UniProt Q15119)
PDK4 (human) = PDK4 (human) (UniProt Q16654)
PDPK1 (human) = PDPK1 (human) (UniProt O15530)
PLK3 (human) = PLK3 (human) (UniProt Q9H4B4)
PRKACB (human) = PRKACB (human) (UniProt P22694)
PRKCQ (human) = PRKCQ (human) (UniProt Q04759)
ROCK2 (human) = ROCK2 (human) (UniProt O75116)
RPS6KA2 KD1 KD2 (human) = RPS6KA2 KD1 KD2 (human) (UniProt Q15349)
RPS6KA4 KD1 KD2 (human) = RPS6KA4 KD1 KD2 (human) (UniProt O75676)
RPS6KB1 (human) = RPS6KB1 (human) (UniProt P23443)
RPS6KB2 (human) = RPS6KB2 (human) (UniProt Q9UBS0)
SIK2 (human) = SIK2 (human) (UniProt Q9H0K1)
TAOK2 (human) = TAOK2 (human) (UniProt Q9UL54)
TEC (human) = TEC (human) (UniProt P42680)
TXK (human) = TXK (human) (UniProt P42681)
WNK3 (human) = WNK3 (human) (UniProt Q9BYP7)
YES1 (human) = YES1 (human) (UniProt P07947)
Chain of YES1 (human) (P07947 whole entry, looked up): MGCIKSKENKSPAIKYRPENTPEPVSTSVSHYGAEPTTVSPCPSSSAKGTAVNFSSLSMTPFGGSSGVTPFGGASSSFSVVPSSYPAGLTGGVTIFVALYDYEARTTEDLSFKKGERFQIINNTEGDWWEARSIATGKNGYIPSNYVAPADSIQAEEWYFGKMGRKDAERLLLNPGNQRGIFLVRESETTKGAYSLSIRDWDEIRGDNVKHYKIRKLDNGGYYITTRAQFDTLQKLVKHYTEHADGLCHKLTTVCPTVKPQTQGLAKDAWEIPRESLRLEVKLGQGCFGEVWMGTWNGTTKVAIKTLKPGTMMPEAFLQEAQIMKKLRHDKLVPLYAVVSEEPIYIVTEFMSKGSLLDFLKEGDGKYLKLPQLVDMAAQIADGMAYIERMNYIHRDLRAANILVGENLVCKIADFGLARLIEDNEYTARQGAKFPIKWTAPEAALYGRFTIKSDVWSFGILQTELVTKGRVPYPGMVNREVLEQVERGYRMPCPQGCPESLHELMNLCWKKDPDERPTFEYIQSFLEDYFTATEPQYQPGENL

Chain of ERBB2 (human) (P04626 whole entry, looked up): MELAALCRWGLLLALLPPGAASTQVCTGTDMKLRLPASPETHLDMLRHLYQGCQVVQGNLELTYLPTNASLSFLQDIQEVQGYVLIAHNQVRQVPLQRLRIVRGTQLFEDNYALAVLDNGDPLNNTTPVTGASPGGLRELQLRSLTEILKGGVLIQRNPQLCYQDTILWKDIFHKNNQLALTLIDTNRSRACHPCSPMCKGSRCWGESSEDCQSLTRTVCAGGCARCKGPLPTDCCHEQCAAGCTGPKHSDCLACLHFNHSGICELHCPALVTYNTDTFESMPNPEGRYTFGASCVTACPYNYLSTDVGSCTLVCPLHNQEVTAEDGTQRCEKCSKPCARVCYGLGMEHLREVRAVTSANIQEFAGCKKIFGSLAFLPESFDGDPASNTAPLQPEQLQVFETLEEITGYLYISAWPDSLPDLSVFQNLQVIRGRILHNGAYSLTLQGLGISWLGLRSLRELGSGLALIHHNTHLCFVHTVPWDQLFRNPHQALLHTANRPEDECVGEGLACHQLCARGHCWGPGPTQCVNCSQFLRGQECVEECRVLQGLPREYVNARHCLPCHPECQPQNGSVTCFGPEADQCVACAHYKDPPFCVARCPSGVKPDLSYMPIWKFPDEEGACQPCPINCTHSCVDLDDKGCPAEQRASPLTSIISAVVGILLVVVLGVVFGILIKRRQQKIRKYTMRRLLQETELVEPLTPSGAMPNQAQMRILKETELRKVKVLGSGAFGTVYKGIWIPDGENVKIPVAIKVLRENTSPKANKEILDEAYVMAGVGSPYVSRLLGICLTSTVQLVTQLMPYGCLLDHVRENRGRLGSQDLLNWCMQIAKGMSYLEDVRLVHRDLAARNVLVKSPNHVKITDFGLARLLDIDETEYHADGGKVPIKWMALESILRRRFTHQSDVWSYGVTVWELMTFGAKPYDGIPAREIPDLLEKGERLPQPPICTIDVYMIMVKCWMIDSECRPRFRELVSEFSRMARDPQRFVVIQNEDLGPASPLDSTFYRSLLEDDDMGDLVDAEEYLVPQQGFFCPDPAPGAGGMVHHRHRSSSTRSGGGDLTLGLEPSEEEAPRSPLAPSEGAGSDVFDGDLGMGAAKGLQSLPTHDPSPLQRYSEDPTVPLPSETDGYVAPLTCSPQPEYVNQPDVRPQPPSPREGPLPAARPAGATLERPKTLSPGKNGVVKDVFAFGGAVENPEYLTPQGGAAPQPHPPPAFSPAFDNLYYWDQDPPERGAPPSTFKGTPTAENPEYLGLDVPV
Chain of RPS6KB2 (human) (Q9UBS0 whole entry, looked up): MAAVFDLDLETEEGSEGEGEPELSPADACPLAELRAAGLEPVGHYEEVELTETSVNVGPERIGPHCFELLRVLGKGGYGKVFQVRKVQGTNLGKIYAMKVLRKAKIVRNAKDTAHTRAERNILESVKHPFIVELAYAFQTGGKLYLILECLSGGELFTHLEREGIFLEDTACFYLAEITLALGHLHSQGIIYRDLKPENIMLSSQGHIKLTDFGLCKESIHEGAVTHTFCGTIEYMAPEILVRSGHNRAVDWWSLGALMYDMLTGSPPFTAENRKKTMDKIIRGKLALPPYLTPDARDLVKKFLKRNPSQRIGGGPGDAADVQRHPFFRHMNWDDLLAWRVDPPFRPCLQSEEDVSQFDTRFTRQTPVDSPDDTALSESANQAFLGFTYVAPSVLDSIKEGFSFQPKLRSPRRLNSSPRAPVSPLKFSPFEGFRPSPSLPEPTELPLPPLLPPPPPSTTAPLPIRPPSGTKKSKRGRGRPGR
Chain of NEK6 (human) (Q9HC98 whole entry, looked up): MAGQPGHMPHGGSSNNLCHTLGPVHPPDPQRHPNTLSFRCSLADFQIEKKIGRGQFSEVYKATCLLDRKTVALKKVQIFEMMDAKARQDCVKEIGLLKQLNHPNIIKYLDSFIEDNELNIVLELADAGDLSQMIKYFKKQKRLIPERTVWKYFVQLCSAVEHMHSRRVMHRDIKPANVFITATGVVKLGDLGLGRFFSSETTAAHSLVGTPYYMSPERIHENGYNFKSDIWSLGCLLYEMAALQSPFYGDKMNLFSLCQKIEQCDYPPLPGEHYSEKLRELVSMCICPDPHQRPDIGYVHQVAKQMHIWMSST
Chain of WNK3 (human) (Q9BYP7 whole entry, looked up): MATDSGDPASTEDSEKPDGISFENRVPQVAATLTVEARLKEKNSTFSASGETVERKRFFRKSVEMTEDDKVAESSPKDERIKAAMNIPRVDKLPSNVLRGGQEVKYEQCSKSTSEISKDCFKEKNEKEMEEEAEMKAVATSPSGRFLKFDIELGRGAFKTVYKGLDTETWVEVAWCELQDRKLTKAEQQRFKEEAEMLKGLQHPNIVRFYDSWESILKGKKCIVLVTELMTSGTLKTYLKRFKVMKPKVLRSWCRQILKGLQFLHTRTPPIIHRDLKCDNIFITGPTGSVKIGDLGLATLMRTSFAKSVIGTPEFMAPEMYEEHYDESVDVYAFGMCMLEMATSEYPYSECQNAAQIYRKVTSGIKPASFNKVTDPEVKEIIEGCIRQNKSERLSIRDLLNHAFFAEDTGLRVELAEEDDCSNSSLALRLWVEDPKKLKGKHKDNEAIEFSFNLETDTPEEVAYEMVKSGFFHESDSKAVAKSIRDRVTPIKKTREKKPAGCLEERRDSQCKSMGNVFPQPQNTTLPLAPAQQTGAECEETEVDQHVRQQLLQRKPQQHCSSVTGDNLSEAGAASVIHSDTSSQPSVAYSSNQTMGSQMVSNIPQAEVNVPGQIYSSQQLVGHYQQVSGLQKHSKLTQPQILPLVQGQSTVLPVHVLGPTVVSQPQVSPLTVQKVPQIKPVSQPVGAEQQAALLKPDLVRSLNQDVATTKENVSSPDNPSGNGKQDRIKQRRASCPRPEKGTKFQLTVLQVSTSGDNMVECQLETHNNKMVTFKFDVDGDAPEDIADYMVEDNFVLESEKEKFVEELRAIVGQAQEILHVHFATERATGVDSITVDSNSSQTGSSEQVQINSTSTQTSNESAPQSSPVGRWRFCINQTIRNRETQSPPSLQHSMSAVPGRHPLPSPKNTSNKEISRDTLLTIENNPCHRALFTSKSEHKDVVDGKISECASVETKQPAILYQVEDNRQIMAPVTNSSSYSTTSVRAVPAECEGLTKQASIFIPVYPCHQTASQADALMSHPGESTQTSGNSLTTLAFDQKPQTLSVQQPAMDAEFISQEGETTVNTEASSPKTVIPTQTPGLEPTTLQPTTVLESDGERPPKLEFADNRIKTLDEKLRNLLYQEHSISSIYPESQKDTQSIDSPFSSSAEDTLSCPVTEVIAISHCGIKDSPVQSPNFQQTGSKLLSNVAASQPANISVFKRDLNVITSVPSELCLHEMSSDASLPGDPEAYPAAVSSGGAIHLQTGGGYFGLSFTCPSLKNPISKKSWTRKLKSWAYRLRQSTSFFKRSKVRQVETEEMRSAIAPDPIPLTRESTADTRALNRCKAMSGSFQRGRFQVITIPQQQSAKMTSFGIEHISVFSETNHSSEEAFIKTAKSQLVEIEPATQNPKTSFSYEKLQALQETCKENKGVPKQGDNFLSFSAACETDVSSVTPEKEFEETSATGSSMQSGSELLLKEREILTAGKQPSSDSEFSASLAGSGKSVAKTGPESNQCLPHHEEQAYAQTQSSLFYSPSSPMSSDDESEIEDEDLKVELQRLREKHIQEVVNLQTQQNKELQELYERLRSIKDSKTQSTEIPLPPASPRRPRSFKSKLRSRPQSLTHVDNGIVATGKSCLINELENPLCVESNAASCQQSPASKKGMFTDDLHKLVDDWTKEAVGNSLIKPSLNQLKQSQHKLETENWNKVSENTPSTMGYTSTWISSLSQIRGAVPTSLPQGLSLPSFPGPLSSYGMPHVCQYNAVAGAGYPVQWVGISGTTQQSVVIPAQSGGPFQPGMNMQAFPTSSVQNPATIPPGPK
Chain of TEC (human) (P42680 whole entry, looked up): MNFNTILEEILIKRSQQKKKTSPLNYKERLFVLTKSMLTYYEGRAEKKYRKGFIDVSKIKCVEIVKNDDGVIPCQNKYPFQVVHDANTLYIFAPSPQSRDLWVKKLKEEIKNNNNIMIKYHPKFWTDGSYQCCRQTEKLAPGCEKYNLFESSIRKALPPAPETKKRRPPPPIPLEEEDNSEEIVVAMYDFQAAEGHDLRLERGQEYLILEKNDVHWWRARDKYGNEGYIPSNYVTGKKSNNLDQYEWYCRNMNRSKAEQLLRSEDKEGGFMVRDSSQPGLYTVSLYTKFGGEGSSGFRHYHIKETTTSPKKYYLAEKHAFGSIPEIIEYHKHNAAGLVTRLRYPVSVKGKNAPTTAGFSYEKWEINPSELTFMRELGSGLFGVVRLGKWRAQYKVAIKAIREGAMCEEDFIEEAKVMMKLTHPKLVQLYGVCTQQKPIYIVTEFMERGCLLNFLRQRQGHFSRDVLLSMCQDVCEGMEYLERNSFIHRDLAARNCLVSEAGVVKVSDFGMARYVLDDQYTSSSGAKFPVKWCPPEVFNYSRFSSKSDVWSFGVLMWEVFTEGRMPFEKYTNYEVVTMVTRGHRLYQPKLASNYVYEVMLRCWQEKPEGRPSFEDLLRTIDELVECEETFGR

In the case of `CNC(=O)c1ccccc1Sc1ccc2c(/C=C/c3ccccn3)n[nH]c2c1`, the inhibition (AKT2 (human); compound 0.001 µM) is reported as 0.8%, the inhibition (AKT2 (human); compound 0.02 µM) is reported as -4.1% and the inhibition (CAMK2D (human); compound 0.001 µM) is reported as 3%. The inhibition (CAMK2D (human); compound 0.02 µM) was 2.4%, the inhibition (CAMK2G (human); compound 0.001 µM) was 0.2% and the inhibition (CAMK2G (human); compound 0.02 µM) was -1.1%. It also gave an inhibition (CDK9 (human); compound 0.001 µM) of -4.7%, an inhibition (CDK9 (human); compound 0.02 µM) of -6.4% and an inhibition (CSNK1G3 (human); compound 0.001 µM) of -3.7%. For the same compound, the inhibition (CSNK1G3 (human); compound 0.02 µM) was -2.5%, the inhibition (DDR1 (human); compound 0.001 µM) was -7% and the inhibition (DDR1 (human); compound 0.02 µM) was 1.9%. The inhibition (EPHA5 (human); compound 0.001 µM) was -5.3%, the inhibition (EPHA5 (human); compound 0.02 µM) was -3.9% and the inhibition (ERBB2 (human); compound 0.001 µM) was -1.2%. For the same compound, the inhibition (ERBB2 (human); compound 0.02 µM) was -1.4%, the inhibition (ERBB4 (human); compound 0.001 µM) was 6.3% and the inhibition (ERBB4 (human); compound 0.02 µM) was 3.7%. The inhibition (HIPK2 (human); compound 0.001 µM) was -4.6%, the inhibition (HIPK2 (human); compound 0.02 µM) was -0.1% and the inhibition (MAPK1 (human); compound 0.001 µM) was -5.9%. For the same compound, the inhibition (MAPK1 (human); compound 0.02 µM) was -7.2%, the inhibition (MAPK13 (human); compound 0.001 µM) was -3.3% and the inhibition (MAPK13 (human); compound 0.02 µM) was -3.7%. For the same compound, the inhibition (MAPK3 (human); compound 0.001 µM) was -4.1%, the inhibition (MAPK3 (human); compound 0.02 µM) was -6.1% and the inhibition (MARK3 (human); compound 0.001 µM) was -1%. It also gave an inhibition (NEK2 (human); compound 0.001 µM) of 5.7%, an inhibition (NEK2 (human); compound 0.02 µM) of 4.7% and an inhibition (NEK6 (human); compound 0.001 µM) of -7.6%. The inhibition (NEK6 (human); compound 0.02 µM) was -5.8%, the inhibition (PDK2 (human); compound 0.001 µM) was -2.9% and the inhibition (PDK2 (human); compound 0.02 µM) was -4.8%. The inhibition (PDK4 (human); compound 0.001 µM) was 0.1%, the inhibition (PDK4 (human); compound 0.02 µM) was -0.5% and the inhibition (PDPK1 (human); compound 0.001 µM) was -3.6%. The inhibition (PDPK1 (human); compound 0.02 µM) was -6.4%, the inhibition (PLK3 (human); compound 0.001 µM) was 3.7% and the inhibition (PLK3 (human); compound 0.02 µM) was -1.3%. For the same compound, the inhibition (PRKACB (human); compound 0.001 µM) was -7.3%, the inhibition (PRKACB (human); compound 0.02 µM) was -10.6% and the inhibition (PRKCQ (human); compound 0.001 µM) was 9.9%. The inhibition (PRKCQ (human); compound 0.02 µM) was -1.9%, the inhibition (ROCK2 (human); compound 0.001 µM) was 1.6% and the inhibition (ROCK2 (human); compound 0.02 µM) was -4.7%. The inhibition (RPS6KA2 KD1 KD2 (human); compound 0.001 µM) was -0.7%, the inhibition (RPS6KA2 KD1 KD2 (human); compound 0.02 µM) was 6% and the inhibition (RPS6KA4 KD1 KD2 (human); compound 0.001 µM) was -7.2%. It also gave an inhibition (RPS6KA4 KD1 KD2 (human); compound 0.02 µM) of -1.1%, an inhibition (RPS6KB1 (human); compound 0.001 µM) of 6.6% and an inhibition (RPS6KB1 (human); compound 0.02 µM) of 10.6%. The inhibition (RPS6KB2 (human); compound 0.001 µM) was 9.2%, the inhibition (RPS6KB2 (human); compound 0.02 µM) was 1.8% and the inhibition (SIK2 (human); compound 0.001 µM) was 0.7%. The inhibition (SIK2 (human); compound 0.02 µM) was -1.6%, the inhibition (TAOK2 (human); compound 0.001 µM) was -4.1% and the inhibition (TAOK2 (human); compound 0.02 µM) was -6.1%. For the same compound, the inhibition (TEC (human); compound 0.001 µM) was 3.2%, the inhibition (TEC (human); compound 0.02 µM) was -3.2% and the inhibition (TXK (human); compound 0.001 µM) was -4%. The inhibition (TXK (human); compound 0.02 µM) was -3.9%, the inhibition (WNK3 (human); compound 0.001 µM) was 0.8% and the inhibition (WNK3 (human); compound 0.02 µM) was -1.4%. It also gave an inhibition (YES1 (human); compound 0.001 µM) of 5.9%.

With `CNC(=O)c1cc(Oc2ccc(NC(=O)Nc3ccc(Cl)c(C(F)(F)F)c3)cc2)ccn1` the inhibition (AKT2 (human); compound 0.02 µM) was -9%, the inhibition (AKT2 (human); compound 0.2 µM) was -8.2% and the inhibition (CAMK2D (human); compound 0.2 µM) was 5.2%. For the same compound, the inhibition (CAMK2G (human); compound 0.02 µM) was -7%, the inhibition (CAMK2G (human); compound 0.2 µM) was 2% and the inhibition (CDK9 (human); compound 0.02 µM) was -7.5%. It also gave an inhibition (CDK9 (human); compound 0.2 µM) of -6.7%, an inhibition (CSNK1G3 (human); compound 0.02 µM) of -1.4% and an inhibition (CSNK1G3 (human); compound 0.2 µM) of -6.9%. It also gave an inhibition (DDR1 (human); compound 0.02 µM) of 4.2%, an inhibition (DDR1 (human); compound 0.2 µM) of 88.7% and an inhibition (EPHA5 (human); compound 0.02 µM) of 6.1%. It also gave an inhibition (EPHA5 (human); compound 0.2 µM) of 38.8%, an inhibition (ERBB2 (human); compound 0.02 µM) of 0.5% and an inhibition (ERBB2 (human); compound 0.2 µM) of -1.7%. It also gave an inhibition (ERBB4 (human); compound 0.02 µM) of -0.4%, an inhibition (ERBB4 (human); compound 0.2 µM) of 10.4% and an inhibition (MAPK1 (human); compound 0.02 µM) of -3.9%. The inhibition (MAPK1 (human); compound 0.2 µM) was -4.1%, the inhibition (MAPK13 (human); compound 0.02 µM) was -3.5% and the inhibition (MAPK13 (human); compound 0.2 µM) was -0.7%. The inhibition (MAPK3 (human); compound 0.02 µM) was -2.3%, the inhibition (MAPK3 (human); compound 0.2 µM) was -0.7% and the inhibition (MARK3 (human); compound 0.02 µM) was -5.5%. The inhibition (MARK3 (human); compound 0.2 µM) was 5.7%, the inhibition (NEK2 (human); compound 0.02 µM) was -2.3% and the inhibition (NEK2 (human); compound 0.2 µM) was 8.8%. It also gave an inhibition (NEK6 (human); compound 0.02 µM) of -5%, an inhibition (NEK6 (human); compound 0.2 µM) of -6.1% and an inhibition (PDK2 (human); compound 0.02 µM) of -0.1%. It also gave an inhibition (PDK2 (human); compound 0.2 µM) of 1.3%, an inhibition (PDK4 (human); compound 0.02 µM) of 1.9% and an inhibition (PDK4 (human); compound 0.2 µM) of 3.4%. It also gave an inhibition (PDPK1 (human); compound 0.02 µM) of -1%, an inhibition (PDPK1 (human); compound 0.2 µM) of 0.9% and an inhibition (PLK3 (human); compound 0.02 µM) of 4%. It also gave an inhibition (PLK3 (human); compound 0.2 µM) of 5.3%, an inhibition (PRKACB (human); compound 0.02 µM) of -7.7% and an inhibition (PRKACB (human); compound 0.2 µM) of 3.1%. It also gave an inhibition (PRKCQ (human); compound 0.02 µM) of 1.3%, an inhibition (PRKCQ (human); compound 0.2 µM) of 14.1% and an inhibition (ROCK2 (human); compound 0.02 µM) of -2%. The inhibition (ROCK2 (human); compound 0.2 µM) was 2.8%, the inhibition (RPS6KA2 KD1 KD2 (human); compound 0.02 µM) was -4.3% and the inhibition (RPS6KA2 KD1 KD2 (human); compound 0.2 µM) was -0.2%. For the same compound, the inhibition (RPS6KA4 KD1 KD2 (human); compound 0.02 µM) was -1.1%, the inhibition (RPS6KA4 KD1 KD2 (human); compound 0.2 µM) was 2.6% and the inhibition (RPS6KB1 (human); compound 0.02 µM) was 8.1%. The inhibition (RPS6KB1 (human); compound 0.2 µM) was 48.1%, the inhibition (RPS6KB2 (human); compound 0.02 µM) was 6.3% and the inhibition (RPS6KB2 (human); compound 0.2 µM) was 5.5%. It also gave an inhibition (SIK2 (human); compound 0.02 µM) of -3.8%, an inhibition (SIK2 (human); compound 0.2 µM) of 3% and an inhibition (TAOK2 (human); compound 0.02 µM) of 7.3%. The inhibition (TAOK2 (human); compound 0.2 µM) was 48%, the inhibition (TEC (human); compound 0.02 µM) was -6.3% and the inhibition (TEC (human); compound 0.2 µM) was 9.4%. For the same compound, the inhibition (TXK (human); compound 0.02 µM) was -6.1%, the inhibition (TXK (human); compound 0.2 µM) was 5.8% and the inhibition (WNK3 (human); compound 0.02 µM) was -8%. For the same compound, the inhibition (WNK3 (human); compound 0.2 µM) was 3.9%, the inhibition (YES1 (human); compound 0.02 µM) was -1.9% and the inhibition (YES1 (human); compound 0.2 µM) was 17.7%.
